Assay results as given in patent US20060063143A1, “Immortalized hypothalamic neuronal cell lines” (priority 2002, published 2006).

System: immortalized hypothalamic subclones N-7, N-22, N-29
Assay: Functional cAMP response of immortalized subclones to peptide stimulation (RIA)
Type: cell-based, mouse
Conditions: cell lines N-7, N-22 and N-29; 10^-7 M (100 nM) peptide, 15 minutes, IBMX 100 μM
Description: The onset of mood disorders, such as depression or anxiety, involve the altered function of multiple loci in the brain that regulate emotionality, memory and motivation (41-43). However, the inability to describe a cellular and molecular aetiology of these conditions likely reflects, in part, the existence of critical neurological circuits not yet understood. A novel family of neuropeptides on the carboxy-terminus of the teneurin transmembrane proteins (32, 44) is implicated in neuronal communication. In one embodiment, they modulate stress responses and anxiety (data not shown) and likely play a role in some psychiatric illnesses. In another embodiment, they are implicated as modulators of cell cycle and cell proliferation. These sequences are called teneurin C-terminal-associated peptides (TCAP-1 to 4) [SEQ. ID NOs 1-9]. These peptides may also have a cleavable amidation signal at the C-terminus, such as “GRR” or “GKR”. […]
The functional cAMP response of the immortalized subclones to TCAP peptide stimulation was also assessed and the results are shown in FIG. 18. […] N-7, N-22 and N-29 were analyzed for the cAMP response to peptide stimulation. […] Cells were scraped from the plate and kept at −20° C. until the amounts of intracellular cAMP were determined in triplicate by RIA (Biotechnologies Inc., Stoughton, Mass.) according to the manufacturer's instructions.

## rtTCAP-3: teneurin C-terminal-associated peptide, rainbow trout TCAP-3, SEQ ID NO 9 plus amidation signal GKR; stress-regulating peptide provided by Dr. D. Lovejoy (QLLSGRKVLGYDGYYVLSIEQYPELADSANNIQFLRQSEI; C-terminal GKR amidation signal; Trout TCAP3)
  TCAP responsiveness of cell lines (cAMP response): responsive
